We go through eight compounds from US20060166907A1, “Composition for the treatment of nasopharyngeal carcinoma and method of use thereof” (priority 2002, published 2006).

Like-named read-outs stand apart in the source and are kept apart here.

The target of data set [1] is T1, GGTase I from human brain (Homo sapiens, UniProt P49354+P53609).
T1 construct: GGTase I from human brain; purchased ABS reagent; host or cells: human brain (tissue-derived, not recombinant)
The data set can be described thus: In vitro GGTase I assay ([3H]-geranylgeranylation of H-Ras CVLL). As to conditions: read-out: Enzyme assays IC50 GGTase I. Type of data set: biochemical. The protocol: (§1) The effect of Compound A and other drugs on FTase activity was assayed in vitro with FTase from human brain cytosol (ABS Reagents, Wilmington, Del.) as target enzyme and recombinant human H-Ras protein containing the wild type CAAX box (Biomol, Plymouth Meeting, Pa.) as a specific substrate. The incubation mixture (25 μl) for [^3H]-farnesylation contained 50 mM Tris-HCl (pH 7.5), 5 mM dithiothreitol, 20 μM ZnCl2, 40 mM MgCl2, 0.6 μM [^3H]-farnesyl pyrophosphate (22.3 Ci/mmol) (NEN, Boston, Mass.), 4 μM recombinant H-Ras and 10 μg FTase. After 60 min at 37° C., the reaction was stopped by adding 150 μl of absolute ethanol. The mixture was then filtered on Unifilter GF/B microplate (Packard, Rungis, France) and washed 6 times with ethanol prior to scintillation counting. After adding 50 μl of Microscint 0, plates were counted with a Packard Top Count scintillation counter. Drug effects on GGTase I activity were assayed by a similar method with GGTase I from human brain (ABS reagent) as target enzyme and human recombinant H-Ras containing a mutated CAAX box (CVLL)(Biomol). The incubation mixture contained 4 μM recombinant H-Ras, 0.6 μM [^3H]-geranylgeranyl-pyrophosphate (19.3 Ci/mmol) (NEN) and 100 μg of GGTase I. GGTI-286 was used as a positive control for the GGTase-I inhibition assay. Results were expressed as the concentrations of drugs required to inhibit 50% of prenyl-incorporation into the recombinant H-Ras proteins (IC50). Assessment of farnesyl-transferase inhibition in intact cells.

Data set [2] deals with T2, FTase from human brain cytosol (Homo sapiens, UniProt P49354+P49356).
T2 construct: FTase from human brain cytosol; purchased ABS Reagents, Wilmington, Del; host or cells: human brain cytosol (tissue-derived, not recombinant)
The data set can be described thus: In vitro FTase assay ([3H]-farnesylation of H-Ras). The data set is classed as biochemical. As to conditions: mean of 2 experiments (lowest-highest); read-out: Enzyme assays IC50 FTase. The protocol:
as §1

The subject of data set [3] is C15 cells. The data set can be described thus: TRAF1 cleavage Western blot, C15 cells. Type of data set: cell-based, human. Conditions: 24 h, doxorubicin 1 μM, Compound A 5 μM. How it is done:
FIG. 6. Induction of TRAF1-cleavage in C15 cells treated with doxorubicin combined to Compound A. A: Diagram of Fas-mediated TRAF-1-cleavage as reported by Leo et al. (2001). The locations of target peptides used for production of the H-3 monoclonal and H-132 polyclonal antibody are indicated by hatched boxes. The peptide targeted by H-3 was entirely contained in fragment II whereas the peptide targeted by H132 was mainly co-linear with fragment I. B: C15 cells were treated for 24 h with doxorubicin (1 μM), Compound A […] or a combination of both. Control cells were treated with the Fas-agonist antibody 7C11. Cell lysates (50 μg protein per lane) were separated on a 8-16% SDS-PAGE linear gradient prior to Western Blot analysis with anti-TRAF-1 antibodies. Both antibodies detected a main band at 46 kd Additional bands corresponding to fragments of smaller sizes were visible, mainly in samples treated with 7C11 or the combination of doxorubicin and Compound A. In the extracts of cells treated with 7C11, these smaller fragments had apparent molecular weights of 29 kD (H-3) and 24 kD (H-132) which were compatible with the sizes of TRAF1 fragments reported by Leo et al. (2001). Similar results were obtained in three similar experiments.
On the technique in general: In western blotting, separated proteins are transferred to a membrane and probed.

In a further data set the test system is C666-1 cells. The data set can be described thus: WST-1 cell viability assay, C666-1 cells. Conditions: for IC50: read-out: IC 50, NPC cell viability, C666-1 Cells. The protocol:
Cell viability assays were performed in 96 well plastic microplates, either uncoated (C666-1) or coated with Poly HEMA (C15). For each cell line, the number of cells distributed per well was optimized in order to achieve the highest metabolic activity while keeping exponential growth till the end of the test. C15 and C666-1 cells were seeded at 10^5 and 35×10^3/well, respectively, in 150 μl culture medium. Following an overnight pre-incubation culture, serial dilutions of chemotherapy drugs (50 μl; final concentration 50 nM-50 μM) were added in quadruplicate to a […]. At the completion of a 72 h incubation with tested pharmacological agents, cell viability was evaluated using the WST-1 assay (Roche Molecular, France). The WST-1 assay is based on the cleavage of the tetrazolium salt by mitochondrial dehydrogenases. […] Cells were incubated with 10 μl of the WST-1 reagent added to the culture medium, for 3 to 6 h, at 37° C. The plates were subsequently read on an ELISA reader (Dynatech MR7000, Guernsey channel Island, USA) using a 490 nm filter. The mean and standard deviation were determined for quadruplicate samples. For each compound, values falling in the linear part of sigmoid curve were included in a linear regression analysis and were used to estimate the 50% inhibitory concentration (IC 50). Measurement of caspase activity in drug treated NPC cells.
(Ali, H. et al., Chemotherapy in advanced nasopharyngeal cancer. Oncology (Huntingt), 14:1223-1230, 2000.) Their short term cytotoxic effect was assessed in vitro on the C15 and C666-1 cells, using a cell viability assay based on WST reduction. Cultured cells were incubated in the presence of various concentrations of each therapeutic agent for 72 hours.
(Tetrazolium dyes change colour on reduction, which living cells bring about.)

Data set [4] concerns farnesyl-transferase in intact MIAPaca cells. Description: Farnesyl-transferase inhibition in intact cells (H-Ras and N-Ras Western blot). Type of data set: cell-based, human. As to conditions: 48 h. How it is done: The effect of Compound A on farnesyl-transferase in intact cells was assayed in MIAPaca cells, a human pancreatic carcinoma cell line which was purchased from the ATCC. Both H-Ras and N-Ras were investigated as reference substrates of the endogenous farnesyl-transferase. Total protein extracts were prepared from MIAPaca cells treated for 48 h with increasing concentrations of Compound A (1-100 nM) along with extracts from untreated cells as a negative control. A positive control was provided by cells treated with mevastatine (30 μM). Mevastatine is an HMG-CoA reductase inhibitor which blocks the synthesis of farnesyl metabolic precursors. Cell extracts were separated by SDS-polyacrylamide gels (15%) and analyzed by Western blot with polyclonal antibodies directed to H-Ras and N-Ras (Santa Cruz, Heidelberg, Germany). Farnesyl-transferase inhibition was assessed indirectly by detection of non-prenylated forms of H-Ras and N-Ras which were slightly shifted toward higher molecular weights and reacted more efficiently with antibodies. Assessment of drug effect on NPC cell viability.

Data set [5] has as its system C15 cells. Description: cells. Conditions: Homo sapiens, 72 h, read-out: IC 50, NPC cell viability, C15 Cells.
Data set [6] has as its system C15 cells. Description: PARP cleavage Western blot, C15 cells. As to conditions: doxorubicin 1 μM, Compound A 5 μM, combination at 24 h. Type of data set: cell-based, human. How it is done: FIG. 5. […] Corresponding cell lysates (50 μg protein per lane) were separated by 7.5% SDS-PAGE and analyzed by Western Blot with an anti-PARP monoclonal antibody. The cleaved product of PARP was at 85 kD, as shown in the positive-control extract derived from C15 cells treated with the CD95 agonist-antibody 7C11.

Data set [7] relates to C15 cells. The data set can be described thus: Nuclear morphology, Hoechst 33342 staining, C15 cells. The data set is classed as cell-based, human. Conditions: 48 h to 72 h, doxorubicin 1 μM, Compound A 5 μM. From the text:
FIG. 3. […] A: non-treated cells.

The subject of data set [8] is C15 cells. Conditions: for IC50: read-out: IC 50, NPC cell viability, C15 Cells, 72 h incubation, WST-1, PolyHEMA-coated plates.
The subject of data set [9] is TWO1 and TWO39 NPC cell lines. Conditions: TWO1 and TWO39, EBV-negative lines; cited from earlier work.
Another data set deals with CNE1 NPC cell line. Conditions: CNE1, EBV-negative line; cited from earlier work.
Setting [10] is: mean of 2 experiments (lowest-highest).

For `CC[C@H](C)[C@@H](CN1CSC(C)(C)[C@H]1C(=O)N[C@@H](CCSC)C(=O)OC)NC[C@@H](N)CS` [BIM-46068], the IC50 in [1] (setting [10]) stood at 268000 nM; in [2], 91 nM.

On to `COc1cc(Cn2cncc2CC(=O)N2Cc3nc(-c4ccccc4Br)cn3Cc3c(F)cccc32)ccc1C#N` [Compound A], for which, in the data set with C15 cells [3], the TRAF1 cleavage entry was “no modifications”. The IC50 was 10000 nM in the data set with C666-1 cells (Homo sapiens, C6661, 72 h); over 100000 nM in data set [1]; 10000 nM in the data set on C15 cells [5]; 15 nM in [2]. In addition, the “concentration giving significant inhibition of H-Ras and N-Ras farnesylation” value in [4] came out at 50 nM. Moreover, the PARP cleavage result with C15 cells [6] is on record as “Moderate PARP cleavage”. In addition, the “nuclear apoptosis morphological changes” value in the data set with C15 cells [7] is “much less apparent”.

For `COC(=O)[C@H](CCSC)NC(=O)c1ccc(NC[C@@H](N)CS)cc1-c1ccccc1` [FTI-277], the IC50 was determined as 314 nM in [1] (setting [10]) and 30 nM in data set [2].

`COc1cccc2c1C(=O)c1c(O)c3c(c(O)c1C2=O)C[C@@](O)(C(=O)CO)C[C@@H]3O[C@H]1C[C@H](N)[C@H](O)[C@H](C)O1` [Doxorubicin, doxorubicin]: the TRAF1 cleavage entry with C15 cells [3] is given as “no modifications”. Besides, the IC50 was 200 nM in the data set on C666-1 cells (Homo sapiens, C6661, 72 h) and 150 nM in the data set on C15 cells [5]. The PARP cleavage entry in the data set with C15 cells [6] is “Moderate PARP cleavage”. Besides, the “nuclear apoptosis morphological changes” value in the data set with C15 cells [7] is reported as “much less apparent”.

In the case of `O=c1[nH]cc(F)c(=O)[nH]1` [5-fluorouracyl], the “sensitivity to short term cytotoxic effect” value in the data set with C666-1 cells and with C15 cells [8] was “No significant effects” in each case. In addition, the IC50 with C666-1 cells (72 h incubation, WST-1) was at least 5000 nM; in the data set on C15 cells [8], at least 5000 nM.

Consider `CC(=O)O[C@H]1C(=O)[C@@]2(C)[C@H]([C@H](OC(=O)c3ccccc3)[C@]3(O)C[C@H](OC(=O)[C@H](O)[C@@H](NC(=O)c4ccccc4)c4ccccc4)C(C)=C1C3(C)C)[C@]1(OC(C)=O)CO[C@@H]1C[C@@H]2O` [Taxol], for which the “sensitivity to short term cytotoxic effect” value in the data set with C666-1 cells is “highly sensitive”; in the data set with C15 cells [8], “totally resistant”. In addition, the IC50 in the data set with C666-1 cells (Homo sapiens, C6661, 72 h) is 200 nM; in the data set on C15 cells [5], at least 25000 nM. Besides, the “effect on NPC cell lines” value in data set [9] was “induce growth arrest and/or apoptosis”.

As for `COC(=O)[C@H](CC(C)C)NC(=O)c1ccc(NC[C@@H](N)CS)cc1-c1ccccc1` [GGTI-286], the IC50 in [1] (setting [10]) is 114 nM; in [2] it was 365 nM.

Turning to `N.N.[Cl][Pt][Cl]` [Cis-platinum, cis-platin], in the data set with CNE1 NPC cell line, the “concentration inducing growth arrest” value is listed as “about 1 μM”. In addition, the IC50 with C666-1 cells (72 h incubation, WST-1) is 5000 nM. In addition, in the data set on C15 cells [8], the “enhancement of cytotoxicity by combination with Compound A” value is given as “not observed” and the IC50 turned out to be 1000 nM.
